Results reported in the NIST ThermoML archive (doi:10.1016/j.jct.2019.06.023).
± gives the expanded uncertainty stated by the source.

Test: mn = molality of the nth substance listed, in mol/kg
Conditions: 100 kPa, Liquid; for speed of sound: Frequency=3 MHz, Single path-length method; for mass density: Vibrating tube method

O=C([O-])C(=O)[O-].[K+].[K+] [potassium oxalate] + O
speed of sound (288.15 K, m1 = 0.2): 1497 ± 1.4 m/s | speed of sound (288.15 K, m1 = 0.4): 1525.3 ± 2.1 m/s | speed of sound (288.15 K, m1 = 0.6): 1552.3 ± 1.3 m/s | speed of sound (288.15 K, m1 = 0.8): 1580.5 ± 2.6 m/s | mass density (288.15 K, m1 = 0.2): 1023.62 ± 0.58 kg/m3 | mass density (288.15 K, m1 = 0.4): 1046.97 ± 0.96 kg/m3 | mass density (288.15 K, m1 = 0.6): 1069.58 ± 1.4 kg/m3 | mass density (288.15 K, m1 = 0.8): 1092.28 ± 1.9 kg/m3 | speed of sound (298.15 K, m1 = 0.2): 1524.8 ± 1.4 m/s | speed of sound (298.15 K, m1 = 0.4): 1550.9 ± 1.6 m/s | speed of sound (298.15 K, m1 = 0.6): 1576.4 ± 2 m/s | speed of sound (298.15 K, m1 = 0.8): 1602.3 ± 2.3 m/s | mass density (298.15 K, m1 = 0.2): 1021.1 ± 0.57 kg/m3 | mass density (298.15 K, m1 = 0.4): 1044.13 ± 0.97 kg/m3 | mass density (298.15 K, m1 = 0.6): 1066.44 ± 1.4 kg/m3 | mass density (298.15 K, m1 = 0.8): 1088.95 ± 1.8 kg/m3 | speed of sound (308.15 K, m1 = 0.2): 1545.9 ± 1.4 m/s | speed of sound (308.15 K, m1 = 0.4): 1570.5 ± 1.6 m/s | speed of sound (308.15 K, m1 = 0.6): 1594.5 ± 1.9 m/s | speed of sound (308.15 K, m1 = 0.8): 1618.8 ± 2.2 m/s | mass density (308.15 K, m1 = 0.2): 1017.79 ± 0.57 kg/m3 | mass density (308.15 K, m1 = 0.4): 1040.55 ± 0.96 kg/m3 | mass density (308.15 K, m1 = 0.6): 1062.69 ± 1.4 kg/m3 | mass density (308.15 K, m1 = 0.8): 1084.89 ± 1.8 kg/m3 | speed of sound (318.15 K, m1 = 0.2): 1561.2 ± 1.3 m/s | speed of sound (318.15 K, m1 = 0.4): 1584.6 ± 2.4 m/s | speed of sound (318.15 K, m1 = 0.6): 1607.1 ± 1.6 m/s | speed of sound (318.15 K, m1 = 0.8): 1630.1 ± 2.2 m/s | mass density (318.15 K, m1 = 0.2): 1013.81 ± 0.56 kg/m3 | mass density (318.15 K, m1 = 0.4): 1036.39 ± 0.65 kg/m3 | mass density (318.15 K, m1 = 0.6): 1058.36 ± 1.6 kg/m3 | mass density (318.15 K, m1 = 0.8): 1080.46 ± 1.8 kg/m3
